Measured values published in PMC8202924, “Emodepside targets SLO-1 channels of Onchocerca ochengi and induces broad anthelmintic effects in a bovine model of onchocerciasis” (PLoS Pathogens, 2021).

Legend:
[1] = Dose identification (tolerability, blood glucose) after single IV infusion in Holstein cattle; assay type: in vivo, Holstein cattle (Bos taurus)
Source text: To ensure that doses of emodepside would be well tolerated in cattle in Cameroon, and that any adverse effects would be manageable in the field, dose identification was first performed in two female Holstein cattle (Bos taurus) 13–15 months old in Germany. Animals were from Rinder Union West, 48147 Münster, Germany, and were kept in a pen in an outdoor climate housing system of approximately 8 × 10 m in size in Hanscheider Hof, 51399 Burscheid, Germany. Pens were equipped with a self-locking feeding fence, deep-straw bedding and an automatic cup drinker system. Animals were offered fresh corn- and grass-silage once daily ad libitum, drinking water from the onsite well and mineral licks ad libitum. Straw bedding was refreshed at least weekly. Tolerability and pharmacokinetics (PK) of emodepside were assessed after a single intravenous (IV) injection: emodepside (4.0% m/m in solketal) was administered by constant infusion via the external jugular vein using disposable sterile IV catheters (Vasofix Braunüle 14G, 2,2 × 50 mm, Braun, Germany), sterile syringes (Perfusor-Syringe 50 mL, Braun, Germany), tubing systems (Braun Original-Perfusor-tubing, 150 cm, Luer Lock), and a perfusion system (Braun Perfusor Space). Animal 1 received emodepside 2.17 mg/kg; animal 2 received emodepside 1 mg/kg. Safety and tolerability were assessed during and after each administration. […] To determine the PK profile of emodepside and any possible influence of the drug on blood glucose concentrations, blood samples were drawn before dosing and at 4 min, 8 min, 15 min, 30 min, 1 h, 2 h, 3 h, 4 h, 6 h, 8 h, 24 h, 32 h, 48 h, 72 h, 96 h and 168 h after administration. Samples for glucose determination were taken before dosing and at 15 min, 30 min, 1 h, 2 h, 3 h, 4 h, 6 h and 8 h after dosing, centrifuged at 10°C (3,220 × g) for 10 min and stored under cool conditions (<8°C).

[2] = Skin concentration of emodepside in the main trial, LC-MS/MS; assay type: in vivo, zebu (Ngaoundéré Gudali) cattle (B. t. indicus)
Experimental: Bovine samples (EDTA-plasma, skin snips and nodules) were stored at –80°C in Cameroon and shipped according to international transportation guidelines on dry ice to Bayer, Germany. Due to suspected contamination with other pathogens, samples required decontamination. Based on modified WHO guidelines for viral inactivation and reports of virus stability in fluids and solid media issued by the United States Army, decontamination of samples was performed. Samples were thawed slowly in a microbiological safety cabinet and the plasma samples were vortexed gently. Skin snips and nodules were homogenized in a Qiagen TissueLyser II (Qiagen NV, Hilden, the Netherlands) with stainless steel beads. Homogenates were weighed and mixed with 4.5 volumes of a 0.5% collagenase solution (collagenase from Clostridium histolyticum [>125 IU/mg] Merck KGaA, Darmstadt, Germany), then incubated at 37°C with orbital mixing at 140 rpm for 48 h.
Plasma samples, skin and nodule homogenates were precipitated in a 1:10 ratio with acetonitrile using a vortex mixer at 150 rpm for 10 min, then centrifuged for 5 min at 14,000 rpm. The supernatants were pipetted into gas-tight vials and incubated at 80°C for 21 min to achieve a core temperature of 80°C for 10 min, then cooled to 4°C in a water-ice bath. Finally, samples were filtered using a cellulose sterile filter (S&S Spartan 13/30) into standard HPLC vials for liquid chromatography–mass spectrometry analysis. For liquid chromatography on a C18 column, a water/methanol gradient (containing 10 mmol ammonium acetate and 0.1 mL/L formic acid) was used. Quantification of emodepside was performed by tandem mass spectrometry on an API 5500 instrument (AB Sciex, Darmstadt, Germany) using the transition of m/z = 1,120 ([M + H]^+) to its product ion m/z = 343.

[3] = Blood glucose in the main trial, test-strip assay; assay type: in vivo, zebu (Ngaoundéré Gudali) cattle (B. t. indicus)
Experimental: Glucose concentrations were measured pre- and post-chemotherapy using venous blood, which was analyzed in a test-strip assay (MediTouch 2 blood glucose monitor, Medisana, Neuss, Germany). Both individual animal and group blood-glucose concentrations were compared with a standard reference range for cattle (45–75 mg/dL [58]). To evaluate group-level effects, 95% confidence intervals (CI) were calculated using the group mean, SD and sample number for each group at each respective timepoint, with changes in blood glucose concentration considered significant if either the lower CI exceeded the upper limit of the standard reference range, or the upper CI was below the lower limit of the standard reference range.

[4] = 1 mg/kg IV perfusion, one animal

Compound | Heart rate by the end of the perfusion [1, 4] | Heart rate, peak during the application [1, 4] [bpm] | Blood glucose, peak ([1]; 1 mg/kg IV, 3–8 h post-application, xylazine at 6–8 h may have contributed) | Blood glucose ([1]; 1 mg/kg IV, after 24 h (normal)) [mmol/L] | Adverse effects ([1]; 1 mg/kg IV, for approximately 1 h after application, then full recovery) | Adverse effects ([1]; 2.17 mg/kg IV perfusion, one animal, treatment discontinued) | Median ratio between skin and plasma concentration ([2]; 54 occasions, same study day, all emodepside groups) | tmax observed in skin ([2]; EMO1L, 0.15 mg/kg IV single dose, animals in order B0696, B0698, B0700, B0730, B0731, B0762) [h] | tmax observed in skin ([2]; EMO7H, 0.75 mg/kg IV daily for 7 days, animals in order B0404, B0434, B0694, B0695, B0734, B0750, B0765) [h] | Blood glucose, group-level 95% CI vs reference range 45–75 mg/dL ([3]; EMO1H, 0.75 mg/kg single dose, at 30 min, 2 and 6 h) | Blood glucose, group-level 95% CI vs reference range 45–75 mg/dL ([3]; EMO1L, 0.15 mg/kg single dose, at 30 min, 2 and 6 h) | Blood glucose, group-level 95% CI vs reference range 45–75 mg/dL ([3]; EMO7H, 0.75 mg/kg daily for 7 days, at 2 h) | Blood glucose, group-level 95% CI vs reference range 45–75 mg/dL ([3]; MRSM, 4 mg/kg every other day for 3 days, at 5 and 30 min and 2 h)
CC(C)C[C@H]1C(=O)O[C@H](Cc2ccc(N3CCOCC3)cc2)C(=O)N(C)[C@@H](CC(C)C)C(=O)O[C@H](C)C(=O)N(C)[C@@H](CC(C)C)C(=O)O[C@H](Cc2ccc(N3CCOCC3)cc2)C(=O)N(C)[C@@H](CC(C)C)C(=O)O[C@H](C)C(=O)N1C [emodepside] | approximately 108 bpm | 140 | ~ 12 mmol/L | 4.33 | Salivation and slight muscle tremors | severe generalised muscle tremor, salivation and tachycardia | 1.1 | 24 | 24 | significantly above the standard reference range | significantly above the standard reference range | significantly above the standard reference range | –
NCCS[As](SCCN)c1ccc(Nc2nc(N)nc(N)n2)cc1 [melarsomine] | – | – | – | – | – | – | – | – | – | – | – | – | significantly above the standard reference range
